Our source for the IC50 values is US20250145665A1, “MACROCYCLIC PEPTIDES USEFUL AS MODULATORS OF TNF ALPHA” (Bristol-Myers Squibb Company, priority 2023, published 2025).

Starred links: 1 amine or outer side, 2 acyl side, 3 side chain; linkers in the order of their positions; H or OH if unused. Positions of bridges follow the written chain, without caps; N, C: chain ends. Non-standard residues stand in square brackets, D forms with d. Residues, ends and D or L forms follow the SMILES beside them. Bip(4'-COOH) = N[C@@H](Cc1ccc(-c2ccc(C(=O)O)cc2)cc1)C(=O)O; Bip(4'-NHAc) = CC(=O)Nc1ccc(-c2ccc(C[C@H](N)C(=O)O)cc2)cc1; Phe(3-CH2NH2) = O=C([C@H](Cc1cccc(CN[*:3])c1)N[*:1])[*:2]; Ala(morpholin-4-yl) = N[C@@H](CN1CCOCC1)C(=O)O; Phe(3-CONH2) = NC(=O)c1cccc(C[C@H](N)C(=O)O)c1; Bip = N[C@@H](Cc1ccc(-c2ccccc2)cc1)C(=O)O; Phe(3-OMe) = COc1cccc(C[C@H](N)C(=O)O)c1; Tiq1c(1S) = O=C(O)[C@H]1NCCc2ccccc21; Hyp = O=C(O)[C@@H]1C[C@@H](O)CN1; 2Pal = N[C@@H](Cc1ccccn1)C(=O)O; Tic = O=C(O)[C@@H]1Cc2ccccc2CN1; Cha = N[C@@H](CC1CCCCC1)C(=O)O; Chg = N[C@H](C(=O)O)C1CCCCC1; Aze = O=C(O)[C@@H]1CCN1; Sar = CNCC(=O)O

The target in one experiment is TNFα (Homo sapiens, UniProt P01375). The experiment can be described thus: TNF-Induced HEK-Blue Assay. The class given is cell-based.
TNFα, sequence (P01375 77-233 limits assumed): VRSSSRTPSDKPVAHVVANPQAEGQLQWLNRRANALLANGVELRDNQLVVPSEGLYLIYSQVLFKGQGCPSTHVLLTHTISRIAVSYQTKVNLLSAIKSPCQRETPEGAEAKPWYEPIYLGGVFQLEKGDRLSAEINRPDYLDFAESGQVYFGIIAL
Settings: not given
Broadly, the IC50 is the concentration that inhibits the measured activity by half. Turning to `CC(=O)Nc1ccc(-c2ccc(C[C@@H]3NC(=O)[C@H](Cc4ccc(-c5ccc(C(=O)O)cc5)cc4)NC(=O)[C@H](CC4CCCCC4)NC(=O)CSC[C@@H](C(=O)NCC(N)=O)NC(=O)[C@H](CC(C)C)NC(=O)[C@H](Cc4ccc(O)cc4)NC(=O)[C@H](C(C)C)NC(=O)[C@@H]4c5ccccc5CCN4C(=O)[C@H](C(C)C)NC(=O)[C@@H](CCCNC(=N)N)NC(=O)[C@H](CC(=O)O)NC(=O)[C@@H]4CCCN4C(=O)CN(C)C3=O)cc2)cc1` [Example 278] ({CH2CO}-[Cha][Bip(4'-COOH)][Bip(4'-NHAc)][Sar]PD[dR]V[Tiq1c(1S)]VYLCG-NH2; thioether N-13), the IC50 was in the range of 50 to 200 nM.

The experiment is the same for the next values; noted with them: HEK-Blue-CD40L cells, NF-kB-driven secreted alkaline phosphatase reporter; TNFα 0.5 ng/ml; 18 h; read-out: TNF induced HEK-Blue assay IC50 value.
Turning to `CC(=O)Nc1ccc(-c2ccc(C[C@@H]3NC(=O)[C@H](Cc4ccc(-c5ccccc5)cc4)NC(=O)[C@H](CN4CCOCC4)NC(=O)CSC[C@@H](C(=O)NCC(N)=O)NC(=O)[C@H](CC(C)C)NC(=O)[C@H](Cc4cnc[nH]4)NC(=O)[C@H](C(C)C)NC(=O)[C@@H]4CCN4C(=O)[C@H](C(C)C)NC(=O)[C@@H](CCCNC(=N)N)NC(=O)[C@H](CC(=O)O)NC(=O)[C@H](Cc4ccc(O)cc4)NC(=O)CN(C)C3=O)cc2)cc1` [Example 273] ({CH2CO}-[Ala(morpholin-4-yl)][Bip][Bip(4'-NHAc)][Sar]YD[dR]V[Aze]VHLCG-NH2; thioether N-13), the half-inhibitory concentration (IC50) was under 50 nM.

Turning to `CC[C@H](C)[C@@H]1NC(=O)[C@@H](CCCNC(=N)N)NC(=O)[C@H](CC(=O)O)NC(=O)[C@H](Cc2cnc[nH]2)NC(=O)CN(C)C(=O)[C@H](Cc2ccc(-c3ccc(NC(C)=O)cc3)cc2)NC(=O)[C@H](Cc2ccc(-c3ccc(C(=O)O)cc3)cc2)NC(=O)[C@H](CC2CCCCC2)NC(=O)CSC[C@@H](C(=O)NCC(N)=O)NC(=O)[C@H](CC(C)C)NC(=O)[C@H](Cc2cnc[nH]2)NC(=O)[C@H](C(C)C)NC(=O)[C@@H]2Cc3ccccc3CN2C1=O` [Example 274] ({CH2CO}-[Cha][Bip(4'-COOH)][Bip(4'-NHAc)][Sar]HD[dR]I[Tic]VHLCG-NH2; thioether N-13), the IC50 is under 50 nM.

In the case of `CC(=O)Nc1ccc(-c2ccc(C[C@@H]3NC(=O)[C@H](Cc4ccc(-c5ccc(C(=O)O)cc5)cc4)NC(=O)[C@H](CC4CCCCC4)NC(=O)CSC[C@@H](C(=O)NCC(N)=O)NC(=O)[C@H](CC(C)C)NC(=O)[C@H](Cc4ccc(O)cc4)NC(=O)[C@H](C(C)C)NC(=O)[C@@H]4Cc5ccccc5CN4C(=O)[C@H](C(C)C)NC(=O)[C@@H](CCCNC(=N)N)NC(=O)[C@H](CC(=O)O)NC(=O)[C@@H]4CCCN4C(=O)CN(C)C3=O)cc2)cc1` [Example 275] ({CH2CO}-[Cha][Bip(4'-COOH)][Bip(4'-NHAc)][Sar]PD[dR]V[Tic]VYLCG-NH2; thioether N-13), the 50% inhibitory concentration (IC50) is 50 to 200 nM.

With `CC[C@H](C)[C@@H]1NC(=O)[C@@H](CCCNC(=N)N)NC(=O)[C@H](CC(=O)O)NC(=O)[C@H](Cc2cnc[nH]2)NC(=O)CN(C)C(=O)[C@H](Cc2ccc(-c3ccc(NC(C)=O)cc3)cc2)NC(=O)[C@H](Cc2ccc(-c3ccc(C(=O)O)cc3)cc2)NC(=O)[C@H](CC2CCCCC2)NC(=O)CSC[C@@H](C(=O)NCC(N)=O)NC(=O)[C@H](CC(C)C)NC(=O)[C@H](Cc2cnc[nH]2)NC(=O)[C@H](C(C)C)NC(=O)[C@@H]2c3ccccc3CCN2C1=O` [Example 276] ({CH2CO}-[Cha][Bip(4'-COOH)][Bip(4'-NHAc)][Sar]HD[dR]I[Tiq1c(1S)]VHLCG-NH2; thioether N-13), the IC50 was under 50 nM.

As for `CC[C@H](C)[C@@H]1NC(=O)[C@@H](CCCNC(=N)N)NC(=O)[C@H](CC(=O)O)NC(=O)[C@H](Cc2cnc[nH]2)NC(=O)CN(C)C(=O)[C@H](Cc2ccc(-c3ccc(NC(C)=O)cc3)cc2)NC(=O)[C@H](Cc2ccc(-c3ccc(C(=O)O)cc3)cc2)NC(=O)[C@H](CC2CCCCC2)NC(=O)CSC[C@@H](C(=O)NCC(N)=O)NC(=O)[C@H](CC(C)C)NC(=O)[C@H](Cc2cnc[nH]2)NC(=O)[C@H](C(C)C)NC(=O)[C@@H]2C[C@@H](O)CN2C1=O` [Example 277] ({CH2CO}-[Cha][Bip(4'-COOH)][Bip(4'-NHAc)][Sar]HD[dR]I[Hyp]VHLCG-NH2; thioether N-13), the IC50 was under 50 nM.

As to `CC[C@H](C)[C@@H]1NC(=O)[C@@H](CCCNC(=N)N)NC(=O)[C@H](CC(=O)O)NC(=O)[C@@H]2c3ccccc3CCN2C(=O)CN(C)C(=O)[C@H](Cc2ccc(-c3ccc(NC(C)=O)cc3)cc2)NC(=O)[C@H](Cc2ccc(-c3ccc(C(=O)O)cc3)cc2)NC(=O)[C@H](CC2CCCCC2)NC(=O)CSC[C@@H](C(=O)NCC(N)=O)NC(=O)[C@H](CC(C)C)NC(=O)[C@H](Cc2ccc(O)cc2)NC(=O)[C@H](C(C)C)NC(=O)[C@@H]2CCCN2C1=O` [Example 279] ({CH2CO}-[Cha][Bip(4'-COOH)][Bip(4'-NHAc)][Sar][Tiq1c(1S)]D[dR]IPVYLCG-NH2; thioether N-13), the 50% inhibitory concentration (IC50) was in the range of 50 to 200 nM.

Take `CC(=O)Nc1ccc(-c2ccc(C[C@@H]3NC(=O)[C@H](Cc4ccc(-c5ccc(C(=O)O)cc5)cc4)NC(=O)[C@H](CC4CCCCC4)NC(=O)CSC[C@@H](C(=O)NCC(N)=O)NC(=O)[C@H](CC(C)C)NC(=O)[C@H](Cc4cnc[nH]4)NC(=O)[C@H](C(C)C)NC(=O)[C@@H]4CCCN4C(=O)[C@H](C4CCCCC4)NC(=O)[C@@H](CCCNC(=N)N)NC(=O)[C@H](CC(=O)O)NC(=O)[C@H](Cc4cnc[nH]4)NC(=O)CN(C)C3=O)cc2)cc1` [Example 280] ({CH2CO}-[Cha][Bip(4'-COOH)][Bip(4'-NHAc)][Sar]HD[dR][Chg]PVHLCG-NH2; thioether N-13): the IC50 lay within 50 to 200 nM.

For `CC[C@H](C)[C@@H]1NC(=O)[C@@H](CCCNC(=N)N)NC(=O)[C@H](CC(=O)O)NC(=O)[C@H](Cc2cnc[nH]2)NC(=O)CN(C)C(=O)[C@H](Cc2ccc(-c3ccc(NC(C)=O)cc3)cc2)NC(=O)[C@H](Cc2ccc(-c3ccc(C(=O)O)cc3)cc2)NC(=O)[C@H](CC2CCCCC2)NC(=O)CSC[C@@H](C(=O)NCC(N)=O)NC(=O)[C@H](CC(C)C)NC(=O)[C@H](Cc2ccc(OC)cc2)NC(=O)[C@H](C(C)C)NC(=O)[C@@H]2CCCN2C1=O` [Example 281] ({CH2CO}-[Cha][Bip(4'-COOH)][Bip(4'-NHAc)][Sar]HD[dR]IPVY(Me)LCG-NH2; thioether N-13), the 50% inhibitory concentration (IC50) fell in the range of 50 to 200 nM.

Take `CC[C@H](C)[C@@H]1NC(=O)[C@@H](CCCNC(=N)N)NC(=O)[C@H](CC(=O)O)NC(=O)[C@H](Cc2cnc[nH]2)NC(=O)CN(C)C(=O)[C@H](Cc2ccc(-c3ccc(NC(C)=O)cc3)cc2)NC(=O)[C@H](Cc2ccc(-c3ccc(C(=O)O)cc3)cc2)NC(=O)[C@H](CC2CCCCC2)NC(=O)CSC[C@@H](C(=O)NCC(N)=O)NC(=O)[C@H](CC(C)C)NC(=O)[C@H](Cc2cccc(OC)c2)NC(=O)[C@H](C(C)C)NC(=O)[C@@H]2CCCN2C1=O` [Example 282] ({CH2CO}-[Cha][Bip(4'-COOH)][Bip(4'-NHAc)][Sar]HD[dR]IPV[Phe(3-OMe)]LCG-NH2; thioether N-13): the half-inhibitory concentration (IC50) was in the range of 50 to 200 nM.

With `CC(=O)Nc1ccc(-c2ccc(C[C@@H]3NC(=O)[C@H](Cc4ccc(-c5ccccc5)cc4)NC(=O)[C@H](CC4CCCCC4)NC(=O)CSC[C@@H](C(=O)NCC(N)=O)NC(=O)[C@H](CC(C)C)NC(=O)[C@H](Cc4cccc(CN)c4)NC(=O)[C@H](C(C)C)NC(=O)[C@@H]4CCCN4C(=O)[C@H](C(C)C)NC(=O)[C@@H](CCCNC(=N)N)NC(=O)[C@H](CC(=O)O)NC(=O)[C@H](Cc4ccc(O)cc4)NC(=O)CN(C)C3=O)cc2)cc1` [Example 283] ({CH2CO}-[Cha][Bip][Bip(4'-NHAc)][Sar]YD[dR]VPV[Phe(3-CH2NH2)]LCG-NH2; thioether N-13), the IC50 was under 50 nM.

Consider `CC[C@H](C)[C@@H]1NC(=O)[C@@H]2CCCN2C(=O)[C@H]([C@@H](C)CC)NC(=O)[C@@H](CCCNC(=N)N)NC(=O)[C@H](CC(=O)O)NC(=O)[C@H](Cc2ccccc2)NC(=O)CN(C)C(=O)[C@H](Cc2ccc(-c3ccc(NC(C)=O)cc3)cc2)NC(=O)[C@H](Cc2ccc(-c3ccc(C(=O)O)cc3)cc2)NC(=O)[C@H](CN2CCOCC2)NC(=O)CSC[C@@H](C(=O)NCC(N)=O)NC(=O)[C@H](CC(C)C)NC(=O)[C@H](Cc2cnc[nH]2)NC1=O` [Example 284] ({CH2CO}-[Ala(morpholin-4-yl)][Bip(4'-COOH)][Bip(4'-NHAc)][Sar]FD[dR]IPIHLCG-NH2; thioether N-13), for which the concentration for half-maximal inhibition (IC50) is 50 to 200 nM.

For `CC[C@H](C)[C@@H]1NC(=O)[C@@H]2CCCN2C(=O)[C@H]([C@@H](C)CC)NC(=O)[C@@H](CCCNC(=N)N)NC(=O)[C@H](CC(=O)O)NC(=O)[C@H](Cc2ccccn2)NC(=O)CN(C)C(=O)[C@H](Cc2ccc(-c3ccc(NC(C)=O)cc3)cc2)NC(=O)[C@H](Cc2ccc(-c3ccccc3)cc2)NC(=O)[C@H](CC2CCCCC2)NC(=O)CSC[C@@H](C(=O)NCC(N)=O)NC(=O)[C@H](CC(C)C)NC(=O)[C@H](Cc2cccc(C(N)=O)c2)NC1=O` [Example 285] ({CH2CO}-[Cha][Bip][Bip(4'-NHAc)][Sar][2Pal]D[dR]IPI[Phe(3-CONH2)]LCG-NH2; thioether N-13), the half-maximal inhibitory concentration (IC50) was under 50 nM.

`CC[C@H](C)[C@@H]1NC(=O)[C@@H]2CCCN2C(=O)[C@H]([C@@H](C)CC)NC(=O)[C@@H](CCCNC(=N)N)NC(=O)[C@H](CC(=O)O)NC(=O)[C@@H]2CCCN2C(=O)CN(C)C(=O)[C@H](Cc2ccc(-c3ccc(NC(C)=O)cc3)cc2)NC(=O)[C@H](Cc2ccc(-c3ccc(C(=O)O)cc3)cc2)NC(=O)[C@H](CC2CCCCC2)NC(=O)CSC[C@@H](C(=O)NCC(N)=O)NC(=O)[C@H](CC(C)C)NC(=O)[C@H](Cc2ccc(O)cc2)NC1=O` [Example 286] ({CH2CO}-[Cha][Bip(4'-COOH)][Bip(4'-NHAc)][Sar]PD[dR]IPIYLCG-NH2; thioether N-13): the half-inhibitory concentration (IC50) lay within 50 to 200 nM.

In the case of `CC(=O)Nc1ccc(-c2ccc(C[C@@H]3NC(=O)[C@H](Cc4ccc(-c5ccc(C(=O)O)cc5)cc4)NC(=O)[C@H](CN4CCOCC4)NC(=O)CSC[C@@H](C(=O)NCC(N)=O)NC(=O)[C@H](CC(C)C)NC(=O)[C@H](Cc4ccccc4)NC(=O)[C@H](C(C)C)NC(=O)[C@@H]4CCCN4C(=O)[C@H](C(C)C)NC(=O)[C@@H](CCCNC(=N)N)NC(=O)[C@H](CC(=O)O)NC(=O)[C@H](Cc4ccc(O)cc4)NC(=O)CN(C)C3=O)cc2)cc1` [Example 287] ({CH2CO}-[Ala(morpholin-4-yl)][Bip(4'-COOH)][Bip(4'-NHAc)][Sar]YD[dR]VPVFLCG-NH2; thioether N-13), the half-maximal inhibitory concentration (IC50) was under 50 nM.
